According to patent US20100022517A1, “OPHTHALMIC FORMULATION OF RHO KINASE INHIBITOR COMPOUND” (priority 2006, published 2010):
Values after ≈ are worked out from the molar mass of the structure shown. Where two headings read alike, the source gives them in different places. Values belong to the compound of their own block, whether it stands above or below them.

Columns and labels:
[1] = Impact of pH on solubility, buffered cosolvent system (plON pSOL Evolution); format: physicochemical; settings: for solubility: buffered cosolvent system
Experimental: Solubility was determined within a target pH range of 4.0-9.0 using a buffered cosolvent system (plON pSOL Evolution).

[2] = Ocular comfort composite behaviour score after ocular instillation; format: in vivo, rabbit
Experimental: Dose Formulation and Administration.
Formulation A: 10 mM phosphate, 1% polysorbate 80, 0.85% NaCl, 0.02% BAC, 0.2% EDTA pH 7.0.
Formulation B: 10 mM phosphate, 1% polysorbate 80, 2.36% Glycerol, 0.02% BAC, 0.2% EDTA pH 7.1.
Formulation C: 10 mM phosphate, 1% polysorbate 80, 2.36% Glycerol, 0.02% BAC, 0.2% EDTA, 0.5% hydroxypropyl methyl cellulose, pH 7.1.
Formulation D: 10 mM phosphate, 1% polysorbate 80, 2.36% Glycerol, 0.02% BAC, 0.2% EDTA, 1% 1,2 dimyristoyl-sn-glycero-3-phosphocholine, pH 7.1.
Pharmacodynamic Analysis. Formulations A-D were administered as two 30 μl drops to the right eye of each rabbit within a dosing group. The rabbits were evaluated for 15 minutes after ocular instillation and their changes in behavior were recorded. […] The higher the score, the more discomfort an animal is. A mean±SE was generated for each group.

[3] = Accelerated stability of Compound A formulation at 60° C., HPLC with UV detection; format: physicochemical; settings: increase in pH from 5.3 to 6.3 and 7.3, 0.9% saline, 0.1% EDTA, 0.01% benzalkonium chloride, 0.8% polysorbate 80
Description: Compound A was formulated in a 0.9% saline solution containing 0.1% EDTA, 0.01% Benzalkonium Chloride and 0.8% Polysorbate 80 at three levels of pH; 5.3, 6.3 and 7.3.

[4] = Effect of formulation pH on ocular surface, aqueous humor and systemic bioavailability after topical ocular dosing; format: in vivo
Experimental: Dose Formulation and Administration. Compound A was formulated at 0.12% w/v (the equivalent millimolar concentration is 3 mM) in 10 mM phosphate, 0.8% polysorbate 80, 0.85% NaCl, 0.01% BAC, 0.1% EDTA at three different pH's, 5.3, 6.3 and 7.3, Compound A was administered as a 30 μl drop to both eyes of each animal within a dosing group and the influence of pH on ocular and systemic exposure was examined.
Study sampling. Plasma, aqueous humor, and ocular samples were obtained from 2 animals (4 eyes) per dosing group at times of 0.25, 0.5, 1, and 2 hours post dosing.
Aqueous humor is the fluid within the anterior chamber of the eye and has the closest correlation to the concentration at the site of action, the trabecular meshwork. Cmax indicates the peak concentration of drug found within aqueous humor. AUC indicates total concentration of the drug within the aqueous humor over time.
Plasma concentration analysis indicates systemic exposure. Systemic exposure is the exposure of the drug to the entire body. Cmax and AUC describe the peak concentration and total concentration of the drug over time, respectively, for Compound A in plasma.
40 μL of saline was applied to the eyes at 0.25 h, 0.5 h, 1 h, and 2 h after administration of Compound A, and the lavage fluids were collected as samples. Ocular surface relates to the surface of the cornea and conjunctiva. Ocular surface residence time is the average time Compound A resides on the ocular surface.

[5] = Solubility of Compound A at target pH 7.3 in 0.85% NaCl vehicle with surfactant or chelating agent, filtered, UV analysis; format: physicochemical; settings: for Concentration Compound A: 20 mM prepared
Description: Concentrations of the surfactant used were at the maximum allowable concentration for excipients Generally Regarded As Safe (GRAS).

[6] = […] w/v, 30 μl drop to both eyes, increasing pH 5.3, 6.3, 7.3

solubility ([1]; pH 5.6, read-out: maximum solubility): 5000 µg/mL (≈ 12.1 mM)
Avg. Sol ([1]; pH 5.6): 5001 µg/mL
Avg. Sol ([1]; pH 7.2): 948 µg/mL
Avg. Sol ([1]; pH 8.5): 282 µg/mL
SMILES: CCS(=O)(=O)Nc1cccc(CN2CCC[C@@H](Nc3ccc4[nH]ncc4c3)C2)c1 [Compound 1.123, (R)-N-(3-((3-(1H-indazol-5-ylamino)piperidin-1-yl)methyl)phenyl)ethanesulfonamide]

ocular comfort score ([2]; 0.16% w/v, two 30 μl drops, right eye, addition of 1% 1,2 dimyristoyl-sn-glycero-3-phosphocholine (Formulation D)): increased ocular discomfort
ocular comfort score ([2]; increasing concentrations 0.03%, 0.1%, 0.32% w/v in formulation A): increased ocular discomfort
solubility ([1]; pH 4-5.8, read-out: solubility): > 20000 µg/mL
Avg. Sol ([1]; pH 4.0): >20000 µg/mL
Avg. Sol ([1]; pH 5.8): >20000 µg/mL
Avg. Sol ([1]; pH 7.7): 2312 µg/mL
stability (percent of Compound A remaining) [3]: decrease in stability
ocular surface concentration ([4]; 0.25 h, between pH 5.3 and 6.3): increased only slightly
ocular surface concentration ([4]; 0.25 h, from pH 6.3 to 7.3): no change
plasma concentration (Cmax and AUC), systemic exposure [4, 6]: no effect on the plasma concentration
ocular surface residence time ([4]; […] w/v, pH increased from 5.3, 6.3 to 7.3, over 2 hours): increase in residence time
ocular surface concentration ([4]; between 1 and 2 hours, pH 7.3): remained consistent
Concentration Compound A ([5]; EDTA 0.3%, pH of solution 7.39, 0.85% NaCl): 1380 µg/mL
Concentration Compound A ([5]; HCO-40 (hydrogenated castor oil) 0.5%, pH of solution 7.39, 0.85% NaCl): 2540 µg/mL
Concentration Compound A ([5]; Poloxamer 188 0.1%, pH of solution 7.30, 0.85% NaCl): 1490 µg/mL
Concentration Compound A ([5]; Poloxamer 407 0.16%, pH of solution 7.28, 0.85% NaCl): 6020 µg/mL
Concentration Compound A ([5]; Polysorbate 80 1%, pH of solution 7.49, 0.85% NaCl): 3850 µg/mL
solubility of Compound A among the surfactant formulations ([5]; formulations containing polysorbate 80 and poloxamer 407, target pH 7.3): highest solubility
SMILES: OCCOc1cccc(CN2CC[C@@H](Nc3cccc4cnccc34)C2)c1 [Compound 2.039, (R)-2-(3-((3-(isoquinolin-5-ylamino)pyrrolidin-1-yl)methyl)phenoxy)ethanol]
ocular comfort score ([2]; lower concentrations 0.03 and 0.1% w/v in formulation A, versus ALPHAGAN, RESTASIS, pilocarpine, LUMIGAN): comparable to those of the approved glaucoma medications
aqueous humor exposure (Cmax and AUC) [4, 6]: enhances the exposure within the aqueous humor
